Results reported in patent publication US20120053200A1, “BACE 2 INHIBITORS” (priority 2010, published 2012).

What follows are molecules tested against T1, BACE2 (Rattus norvegicus, UniProt Q6IE75) (assay: Assay for BACE inhibition by measuring cellular TMEM27 cleavage (INS-TMEM27 cells, ELISA of shed TMEM27)). Details: inhibition of human TMEM27 cleavage by endogenous cellular BACE2 in INS1e-derived INS-TMEM27 rat cell line; ELISA of shed TMEM27 in supernatant.
T1 construct: endogenous cellular BACE2 in the Ins1e rat cell line; endogenous in cells; host or cells: INS-TMEM27 (INS1e-derived rat beta-cell line with doxycycline-inducible full-length hTMEM27)
T1 sequence (Q6IE75 63-514): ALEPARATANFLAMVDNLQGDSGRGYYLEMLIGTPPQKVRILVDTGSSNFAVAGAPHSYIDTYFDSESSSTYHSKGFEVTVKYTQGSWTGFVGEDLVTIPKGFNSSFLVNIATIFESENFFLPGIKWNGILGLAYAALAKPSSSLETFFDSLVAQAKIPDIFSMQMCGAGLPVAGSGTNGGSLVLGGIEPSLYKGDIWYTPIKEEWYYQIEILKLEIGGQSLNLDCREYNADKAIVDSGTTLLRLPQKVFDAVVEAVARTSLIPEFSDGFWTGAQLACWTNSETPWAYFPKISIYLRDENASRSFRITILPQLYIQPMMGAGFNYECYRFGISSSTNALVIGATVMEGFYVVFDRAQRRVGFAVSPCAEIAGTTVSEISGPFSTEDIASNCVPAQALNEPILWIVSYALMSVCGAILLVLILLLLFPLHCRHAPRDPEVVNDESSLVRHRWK
Format: cell-based
In short: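 Rat INS1e-derived cells with doxycycline-inducible full-length human TMEM27, cleaved by endogenous BACE2. After 2 days' culture, inhibitor added; 2 h later, doxycycline to 500 ng/ml final, then 46 h at 37 °C. Shed TMEM27 in medium quantified by sandwich ELISA; IC50 from curve fit.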
`COc1cccc(CNC[C@@H](O)[C@H](Cc2ccccc2)NC(=O)c2cccc(C(=O)N3CCCC3c3cccs3)c2)c1` (stereo partly drawn) [Example 30, N-[(1S,2R)-1-Benzyl-2-hydroxy-3-(3-methoxy-benzylamino)-propyl]-3-(2-thiophen-2-yl-pyrrolidine-1-carbonyl)-benzamide] gave an IC50 of 16 nM. `Cc1cc(C(=O)N[C@@H](Cc2ccccc2)[C@H](O)CNCc2cccc(C(F)(F)F)c2)cc(C(=O)N(C)Cc2ccccn2)c1` [Example 52, N-[(1S,2R)-1-Benzyl-2-hydroxy-3-(3-trifluoromethyl-benzylamino)-propyl]-5,N′-dimethyl-N′-pyridin-2-ylmethyl-isophthalamide] was tested, and the IC50 was 95 nM. `COc1cccc(CNC[C@@H](O)[C@H](Cc2ccccc2)NC(=O)c2cccc(C(=O)N(C)Cc3nc(C)cs3)c2)c1` [Example 3, N-[(1S,2R)-1-Benzyl-2-hydroxy-3-(3-methoxy-benzylamino)-propyl]-N′-methyl-N′-(4-methyl-thiazol-2-ylmethyl)-isophthalamide] showed an IC50 of 175 nM. In the case of `CCn1cc(CNC[C@@H](O)[C@H](Cc2ccccc2)NC(=O)c2cc(C)cc(C(=O)N(C)Cc3nc(C)cs3)c2)cn1` [Example 40, N-{(1S,2R)-1-Benzyl-3-[(1-ethyl-1H-pyrazol-4-ylmethyl)-amino]-2-hydroxy-propyl}-5,N′-dimethyl-N′-(4-methyl-thiazol-2-ylmethyl)-isophthalamide], the IC50 is reported as 104 nM. `O=C(N[C@@H](Cc1ccccc1)[C@H](O)CNCc1cccc(C(F)(F)F)c1)c1cccc(C(=O)N2CCCC2c2cccc(Cl)c2)c1` (stereo partly drawn) [Example 57, N-[(1S,2R)-1-Benzyl-2-hydroxy-3-(3-trifluoromethyl-benzylamino)-propyl]-3-[2-(3-chloro-phenyl)-pyrrolidine-1-carbonyl]-benzamide] gave an IC50 of 619 nM. With `Cc1cc(C2CCCN2C(=O)c2cccc(C(=O)N[C@@H](Cc3ccccc3)[C@H](O)CNCc3cccc(OC(F)(F)F)c3)c2)on1` (stereo partly drawn) [Example 26, N-[(1S,2R)-1-Benzyl-2-hydroxy-3-(3-trifluoromethoxy-benzylamino)-propyl]-3-[2-(3-methyl-isoxazol-5-yl)-pyrrolidine-1-carbonyl]-benzamide] the IC50 was 284 nM. Molecule `Cn1nccc1C1CCCN1C(=O)c1cccc(C(=O)N[C@@H](Cc2ccccc2)[C@H](O)CNCc2cccc(C(F)(F)F)c2)c1` (stereo partly drawn) [Example 15, N-[(1S,2R)-1-Benzyl-2-hydroxy-3-(3-trifluoromethyl-benzylamino)-propyl]-3-[2-(2-methyl-2H-pyrazol-3-yl)-pyrrolidine-1-carbonyl]-benzamide] has an IC50 of 332 nM. `CN(Cc1ccccn1)C(=O)c1cccc(C(=O)N[C@@H](Cc2ccccc2)[C@H](O)CNCc2cccc(C(F)(F)F)c2)c1` [Example 18, N-[(1S,2R)-1-Benzyl-2-hydroxy-3-(3-trifluoromethyl-benzylamino)-propyl]-N′-methyl-N′-pyridin-2-ylmethyl-isophthalamide] showed an IC50 of 47 nM. In the case of `Cc1noc(C2CCCN2C(=O)c2cccc(C(=O)N[C@@H](Cc3ccccc3)[C@H](O)CNCc3cccc(C(F)(F)F)c3)c2)n1` (stereo partly drawn) [Example 17, N-[(1S,2R)-1-Benzyl-2-hydroxy-3-(3-trifluoromethyl-benzylamino)-propyl]-3-[2-(3-methyl-[1,2,4]oxadiazol-5-yl)-pyrrolidine-1-carbonyl]-benzamide], the IC50 is reported as 213 nM. Molecule `O=C(N[C@@H](Cc1ccccc1)[C@H](O)CNCc1cccc(OC(F)(F)F)c1)c1cccc(C(=O)N2CCCC2c2ccccc2)c1` (stereo partly drawn) [Example 24, N-[(1S,2R)-1-Benzyl-2-hydroxy-3-(3-trifluoromethoxy-benzylamino)-propyl]-3-(2-phenyl-pyrrolidine-1-carbonyl)-benzamide] has an IC50 of 68 nM.
